Values of other authors in patent US20200030265A1, “ANTI[…] AND USES THEREOF” (CSP PHARMA, INC., priority 2017, published 2020).

Tested on: ASDs mouse model
Settings: includes core social deficits, sensorimotor coordination, Purkinje cell loss, P2Y2 and P2X7 expression (Naviaux et al. 2013)

SMILES: Cc1ccc(C(=O)Nc2ccc(S(=O)(=O)O)c3cc(S(=O)(=O)O)cc(S(=O)(=O)O)c23)cc1NC(=O)c1cccc(NC(=O)Nc2cccc(C(=O)Nc3cc(C(=O)Nc4ccc(S(=O)(=O)O)c5cc(S(=O)(=O)O)cc(S(=O)(=O)O)c45)ccc3C)c2)c1 [suramin, Suramin]
- multisystem abnormalities that defined the ASD-like phenotype corrected: 16
